Values joined by “and” are separate entries in the source; they are usually repeats but may differ in a detail not shown here. Identical values can stand only once. Inconclusive results and toxic doses are left out. Cut-off read from the data, not from the text of the source: active = T/C of 150% or more; inactive = T/C below 125%.
Test system: L1210 leukemia ip in BDF1 mice, survival T/C
Experiment: NCI In Vivo Anticancer Drug Screen. Data for tumor model L1210 Leukemia (intraperitoneal) in B6D2F1 (BDF1) mice
Conditions: endpoint: mean survival time, higher = longer survival
Procedure, shortened: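 Antitumor effect is assessed in tumor-bearing animals. Survival in the compound arm is compared with a vehicle-dosed control arm and expressed as their quotient.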

[1] = dose: 100.0 mg/kg/injection, schedule: Q04DX003 (ip), vehicle: other
[2] = dose: 200.0 mg/kg/injection, schedule: Q04DX003 (ip), vehicle: other
[3] = dose: 400.0 mg/kg/injection, schedule: Q04DX003 (ip), vehicle: other
[4] = dose: 100.0 mg/kg/injection, schedule: Q01DX001 (ip), vehicle: saline
[5] = dose: 200.0 mg/kg/injection, schedule: Q01DX001 (ip), vehicle: saline
[6] = dose: 400.0 mg/kg/injection, schedule: Q01DX001 (ip), vehicle: saline

Measured: T/C

COC(=O)[C@@]12OC[C@]34[C@H]([C@@H](O)[C@@H]1O)[C@@]1(C)CC(=O)C(O)=C(C)[C@@H]1C[C@H]3OC(=O)[C@H](OC(=O)/C=C(\C)C(C)C)[C@@H]24
inactive: dose: 0.03 mg/kg/injection, schedule: Q01DX009 (ip), vehicle: other 111 % of control | dose: 0.03 mg/kg/injection, schedule: Q01DX009 (ip), vehicle: saline with Tween-80 111 % of control | dose: 0.03 mg/kg/injection, schedule: Q03HX024 (ip), vehicle: other 107 % of control | dose: 0.03 mg/kg/injection, schedule: Q03HX024 (ip), vehicle: saline with Tween-80 108 % of control | dose: 0.06 mg/kg/injection, schedule: Q01DX009 (ip), vehicle: other 111 % of control and 116 % of control | dose: 0.06 mg/kg/injection, schedule: Q01DX009 (ip), vehicle: saline with Tween-80 110 % of control and 120 % of control | dose: 0.06 mg/kg/injection, schedule: Q03HX024 (ip), vehicle: other 107 % of control | dose: 0.06 mg/kg/injection, schedule: Q03HX024 (ip), vehicle: saline with Tween-80 114 % of control | dose: 0.12 mg/kg/injection, schedule: Q01DX009 (ip), vehicle: other 118 % of control and 123 % of control | dose: 0.12 mg/kg/injection, schedule: Q01DX009 (ip), vehicle: saline with Tween-80 117 % of control | dose: 0.12 mg/kg/injection, schedule: Q03HX024 (ip), vehicle: other 121 % of control | dose: 0.12 mg/kg/injection, schedule: Q03HX024 (ip), vehicle: saline with Tween-80 116 % of control | dose: 0.25 mg/kg/injection, schedule: Q01DX009 (ip), vehicle: saline with Tween-80 121 % of control | dose: 0.25 mg/kg/injection, schedule: Q03HX024 (ip), vehicle: other 121 % of control | dose: 0.5 mg/kg/injection, schedule: Q01DX009 (ip), vehicle: other 117 % of control | dose: 0.5 mg/kg/injection, schedule: Q01DX009 (ip), vehicle: saline with Tween-80 123 % of control | dose: 0.6 mg/kg/injection, schedule: Q01DX009 (ip), vehicle: saline + alcohol 96 % of control | dose: 0.8 mg/kg/injection, schedule: Q01DX009 (ip), vehicle: saline + alcohol 112 % of control | dose: 1.0 mg/kg/injection, schedule: Q01DX009 (ip), vehicle: other 122 % of control | dose: 1.3 mg/kg/injection, schedule: Q01DX009 (ip), vehicle: saline + alcohol 114 % of control | dose: 2.0 mg/kg/injection, schedule: Q01DX009 (ip), vehicle: saline + alcohol 123 % of control | dose: 8.0 micrograms/kg/injection, schedule: Q01DX009 (ip), vehicle: saline + alcohol 91 % of control | dose: 16.0 micrograms/kg/injection, schedule: Q01DX009 (ip), vehicle: saline + alcohol 100 % of control | dose: 31.0 micrograms/kg/injection, schedule: Q01DX009 (ip), vehicle: saline + alcohol 109 % of control | dose: 62.0 micrograms/kg/injection, schedule: Q01DX009 (ip), vehicle: saline + alcohol 114 % of control | dose: 250.0 micrograms/kg/injection, schedule: Q01DX009 (ip), vehicle: saline + alcohol 115 % of control | dose: 500.0 micrograms/kg/injection, schedule: Q01DX009 (ip), vehicle: saline + alcohol 114 % of control | dose: 1000.0 micrograms/kg/injection, schedule: Q01DX009 (ip), vehicle: saline + alcohol 120 % of control | dose: 2000.0 micrograms/kg/injection, schedule: Q01DX009 (ip), vehicle: saline + alcohol 117 % of control

O=C(C[n+]1ccccc1)N/N=C/c1ccccc1O
inactive: dose: 12.5 mg/kg/injection, schedule: Q01DX009 (ip), vehicle: saline with Tween-80 86 % of control | dose: 25.0 mg/kg/injection, schedule: Q01DX009 (ip), vehicle: saline with Tween-80 86 % of control | dose: 50.0 mg/kg/injection, schedule: Q01DX009 (ip), vehicle: saline with Tween-80 96 % of control

Nc1ccn(C2OC(CO)C(OC3OC4COC(c5ccccc5)OC4C(O)C3O)C(O)C2O)c(=O)n1 (stereo not given)
inactive: dose: 22.5 mg/kg/injection, schedule: Q01DX001 (ip), vehicle: carboxymethylcellulose (CMC) 105 % of control | dose: 45.0 mg/kg/injection, schedule: Q01DX001 (ip), vehicle: carboxymethylcellulose (CMC) 100 % of control | dose: 90.0 mg/kg/injection, schedule: Q01DX001 (ip), vehicle: carboxymethylcellulose (CMC) 116 % of control | dose: 180.0 mg/kg/injection, schedule: Q01DX001 (ip), vehicle: carboxymethylcellulose (CMC) 97 % of control

CN(CCC#N)CCC#N
inactive: dose: 100.0 mg/kg/injection, schedule: Q04DX003 (ip), vehicle: saline 109 % of control | dose: 200.0 mg/kg/injection, schedule: Q04DX003 (ip), vehicle: saline 94 % of control | dose: 400.0 mg/kg/injection, schedule: Q04DX003 (ip), vehicle: saline 101 % of control

COC(=O)CCc1ccc(OC)cc1
inactive: [1] 100 % of control | [2] 99 % of control | [3] 106 % of control

O=c1[nH]c2ccc(I)cc2c(=O)o1
inactive: dose: 100.0 mg/kg/injection, schedule: Q01DX009 (ip), vehicle: saline with Tween-80 100 % of control | dose: 200.0 mg/kg/injection, schedule: Q01DX009 (ip), vehicle: saline with Tween-80 100 % of control | dose: 400.0 mg/kg/injection, schedule: Q01DX009 (ip), vehicle: saline with Tween-80 101 % of control

O=C(Nc1nc2ccccc2[nH]1)C(F)(F)F
inactive: [4] 97 % of control | [5] 100 % of control | [6] 97 % of control

CNC(=O)n1ncc2ccc([N+](=O)[O-])cc21
inactive: [4] 107 % of control | [5] 107 % of control | [6] 102 % of control

Cc1ccc(C(C)(CCC(=O)O)c2ccc(C)o2)o1
inactive: dose: 100.0 mg/kg/injection, schedule: Q04DX003 (ip), vehicle: saline with Tween-80 96 % of control | dose: 200.0 mg/kg/injection, schedule: Q04DX003 (ip), vehicle: saline with Tween-80 96 % of control | dose: 400.0 mg/kg/injection, schedule: Q04DX003 (ip), vehicle: saline with Tween-80 95 % of control

CCCCCCCCN(C)N=Nc1ccc(C(=O)O)cc1
inactive: dose: 25.0 mg/kg/injection, schedule: Q04DX003 (ip), vehicle: other 93 % of control | dose: 50.0 mg/kg/injection, schedule: Q04DX003 (ip), vehicle: other 90 % of control | dose: 100.0 mg/kg/injection, schedule: Q01DX009 (ip), vehicle: Klucel (hydroxypropylcellulose) (HPC) 102 % of control | [1] 92 % of control | dose: 200.0 mg/kg/injection, schedule: Q01DX009 (ip), vehicle: Klucel (hydroxypropylcellulose) (HPC) 102 % of control | [2] 90 % of control | dose: 300.0 mg/kg/injection, schedule: Q01DX009 (ip), vehicle: Klucel (hydroxypropylcellulose) (HPC) 98 % of control | dose: 400.0 mg/kg/injection, schedule: Q01DX009 (ip), vehicle: Klucel (hydroxypropylcellulose) (HPC) 122 % of control and 90 % of control | [3] 95 % of control | dose: 600.0 mg/kg/injection, schedule: Q01DX009 (ip), vehicle: Klucel (hydroxypropylcellulose) (HPC) 98 % of control

O=C1NC(=O)C(c2ccc(Cl)cc2)(c2ccccc2Cl)N1 (stereo not given)
inactive: dose: 100.0 mg/kg/injection, schedule: Q04DX003 (ip), vehicle: Klucel (hydroxypropylcellulose) (HPC) 95 % of control | dose: 200.0 mg/kg/injection, schedule: Q04DX003 (ip), vehicle: Klucel (hydroxypropylcellulose) (HPC) 102 % of control | dose: 400.0 mg/kg/injection, schedule: Q04DX003 (ip), vehicle: Klucel (hydroxypropylcellulose) (HPC) 98 % of control

Cc1cc(C2=NCCN2)ccc1NC(=O)c1ccc(C(=O)Nc2ccc(C3=NCCN3)cc2C)cc1
inactive: dose: 15.0 mg/kg/injection, schedule: Q01DX Z (ip), vehicle: saline 100 % of control | dose: 30.0 mg/kg/injection, schedule: Q01DX Z (ip), vehicle: saline 106 % of control | dose: 60.0 mg/kg/injection, schedule: Q01DX Z (ip), vehicle: saline 110 % of control
